One assay concerns Plasmodium falciparum. Description: In vitro antiplasmodial activity for chloroquine-resistant Plasmodium falciparum FcB1. It counts as functional, organism-based.
The nature of assay [1]: Cytotoxicity against rat L-6 cell line. It counts as functional, cell-based. As to conditions: L6.
A further assay is filed under the species Rattus norvegicus. Description: Selectivity Index is expressed as the ratio of cytotoxicity (IC50) against rat L-6 cell line to that of antiplasmodial activity (IC50) of chloroquine-resistant strain FcB1 of Plasmodium falciparum. It counts as functional.

The text below walks through data of ChEMBL document CHEMBL1139558, “Isolation, characterization and antiplasmodial activity of steroidal alkaloids from Funtumia elastica (Preuss) Stapf” (Bioorg Med Chem Lett, 2005).

The term IC50 denotes the concentration that gives 50% inhibition. High values mean a need for much substance, low ones inhibition by little substance. Take `CN[C@H]1CC[C@@]2(C)C(=CC[C@H]3[C@@H]4CC[C@@H]5[C@H](C)N(C)C[C@@]54[C@H](OC(=O)CC=C(C)C)C[C@@H]32)C1`: the figures for the 50% inhibitory concentration (IC50) (in the assay with Plasmodium falciparum; in assay [1]) were 0.97 µM and 7.49 µM, respectively. For the same compound, the Selectivity index in the assay filed under Rattus norvegicus amounted to 7.7.

As for `CC(C)=CCC(=O)O[C@@H]1C[C@H]2[C@@H](CC=C3C[C@@H](N(C)C)CC[C@@]32C)[C@@H]2CC[C@@H]3[C@H](C)N(C)C[C@]312`, the results for the 50% inhibitory concentration (IC50) (in the assay on Plasmodium falciparum; in assay [1]) were 1.13 µM and 5.13 µM, respectively. Also, the Selectivity index in the assay filed under Rattus norvegicus was 4.5.

`C[C@H]1[C@H]2CC[C@H]3[C@@H]4CC=C5C[C@@H](N(C)C)CC[C@]5(C)[C@H]4CC[C@]23CN1C` [CONESSINE]: the concentration for half-maximal inhibition (IC50) in the assay on Plasmodium falciparum worked out at 1.04 µM; in assay [1], 14.6 µM. Also, the Selectivity index in the assay listed under Rattus norvegicus amounted to 14.

Regarding `CN[C@H]1CC[C@@]2(C)C(=CC[C@H]3[C@@H]4CC[C@@H]5[C@H](C)N(C)C[C@@]54CC[C@@H]32)C1` [ISOCONESSIMINE], the IC50 in the assay with Plasmodium falciparum was found to be 3.39 µM; in assay [1] it was 36.6 µM. Besides, in the assay filed under Rattus norvegicus, the Selectivity index came to 10.8.
